System: cancer-related miRNAs
Experiment: miRNA expression microarray (SurePrint G3 Human miRNA Microarray Rel.16.0)
Conditions: logarithmic (log2) value of quotient vs control
Protocol: Total RNA was prepared from each of six induced malignant stem cells, one induced non-malignant stem cell, and one induced pluripotent stem cell as mentioned above, and the prepared total RNAs were used in Agilent SurePrint G3 Human miRNA Microarray Rel.16.0 to detect abnormal expression (increased or reduced/lost expression) of non-coding RNAs such as endogenous cancer-related microRNAs in the induced malignant stem cells.
Complete Labeling Reagent and Hyb Kit in accordance with the Agilent protocol. To be specific, each sample total RNA (100 ng) was dephosphorylated with Calf Intestine Alkaline Phosphatase (CIP), and the RNA molecule on its 3′ terminal side was labeled with a cyanine 3-cytidine bisphosphate (pCp-Cy3) molecule using T4 RNA Ligase.
The RNA samples labeled in (14-2-3) were hybridized with SurePrint G3 Human miRNA Microarray Rel.16.0 using Agilent miRNA Complete Labeling Reagent and Hyb Kit. To be specific, each of the labeled RNAs was added to a hybridization buffer and allowed to hybridize on SurePrint G3 Human miRNA Microarray Rel.16.0 for 20 hours. After washing, the DNA microarray image was scanned by Agilent Microarray Scanner, and fluorescence signals from the spots were digitized by Feature Extraction Software (v.10.7.3.1).
The miRNAs were annotated using miRBase Release 18, and hybridization was performed onto a microarray chip with the probes designed for the miRNAs shown in the following table (refer to Table 31 below).
In this analysis, the normalized value of the digital data for the hybridization of a subject cell (induced malignant stem cell) sample was divided by the normalized value from the digital data for the hybridization of a control cell sample and the quotient was used as a measure of variation in expression. Probes for which the quotients deviated from 1 (i.e., log21=0) were considered to indicate a variation in expression; those showing quotients greater than 2 (log22=1) or smaller than 0.5 (log20.5=−1) were selected. For each of the comparisons shown below, the genes shown in the tyrosine kinase list and those shown in the cancer drug targets list were analyzed to make respective lists of the genes showing quotients greater than 2 (log22=1) or smaller than 0.5 (log20.5=−1), as compared with the quotient for the control (taken as 1). The analysis was performed using GeneSpring 12.1.
The Normalized column represents a variation in expression in logarithmic values.

Substance | Normalized (variation in microRNA expression, subject cell / control cell) ([Ngc1_7]vs [Nib2_17]) | Normalized (variation in microRNA expression, subject cell / control cell) ([cc4_c]vs [Nfb2_17]) | Normalized (variation in microRNA expression, subject cell / control cell) ([gc1_6]vs [Ngc1_7]) | Normalized (variation in microRNA expression, subject cell / control cell) ([gc2_1]vs [Nfb2_17]) | Normalized (variation in microRNA expression, subject cell / control cell) ([gc2_5]vs [Nfb2_17]) | Normalized (variation in microRNA expression, subject cell / control cell) ([gc2_10]vs +Nfb2_17]) | Normalized (variation in microRNA expression, subject cell / control cell) ([gcl_6]vs [Nfb2_17])
hSA-lEt-7f-5p (AACTATACAATCTACTACCTC; chemistry not given here) | 2.259 |  |  |  |  |  | 
hsa-1et-7c (AACCATACAACCTACTACC; chemistry not given here) |  | 4.789 |  |  |  |  | 
hsa-let-7a-5p (AACTATACAACCTACTACCT; chemistry not given here) | 1.941 | 5.026 | −1.09 | −1.233 | −1.334 |  | 
hsa-let-7b-5p (AACCACACAACCTACTACC; chemistry not given here) |  |  | −1.937 |  |  |  | 
hsa-let-7c (AACCATACAACCTACTACC; chemistry not given here) | 2.65 |  | −1.801 |  |  |  | 
hsa-let-7d-5p (AACTATGCAACCTACTACC; chemistry not given here) |  |  | −1.545 |  |  |  | 
hsa-let-7e-5p (AACTATACAACCTCCTACC; chemistry not given here) | 3.356 | 4.793 | −2.684 | 1.601 |  | 2.18 | 
hsa-let-7f-5p (AACTATACAATCTACTACCTC; chemistry not given here) |  | 5.523 | −1.421 |  |  |  | 
hsa-let-7g-5p (AACTGTACAAACTACTACCTC; chemistry not given here) |  |  | −1.935 |  |  |  | 
hsa-let-7i-5p (AACAGCACAAACTACTACCTC; chemistry not given here) | 2.747 | 4.054 | −1.307 |  |  |  | 1.44
hsa-miR-7-5p (ACAACAAAATCACTAGTCTTCC; chemistry not given here) |  | 2.213 |  |  |  |  | 
hsa-miR-15a-5p (CACAAACCATTATGTGCTGCT; chemistry not given here) |  | 1.163 |  |  |  |  | 
hsa-miR-16-5p (CGCCAATATTTACGTGCTG; chemistry not given here) |  |  |  | −5.228 | −4.816 | −4.956 | 
hsa-miR-17-5p (CTACCTGCACTGTAAGC; chemistry not given here) |  |  |  | −3.19 | −3.466 |  | 
hsa-miR-18a-5p (CTATCTGCACTAGATGCA; chemistry not given here) |  | −1.44 |  |  |  |  | 
hsa-miR-20a-5p (CTACCTGCACTATAAGCAC; chemistry not given here) |  |  |  | −4.784 | −4.951 | −5.12 | 
hsa-miR-20b-5p (CTACCTGCACTATGAGCAC; chemistry not given here) |  | −3.293 |  | −3.152 | −3.269 | −3.502 | 

Substance | Normalized (variation in microRNA expression, subject cell / control cell) ([Ngc1_7]vs [Nib2_17]) | Normalized (variation in microRNA expression, subject cell / control cell) ([cc4_c]vs [Nfb2_17]) | Normalized (variation in microRNA expression, subject cell / control cell) ([gc1_6]vs [Ngc1_7]) | Normalized (variation in microRNA expression, subject cell / control cell) ([gc2_1]vs [Nfb2_17]) | Normalized (variation in microRNA expression, subject cell / control cell) ([gc2_5]vs [Nfb2_17]) | Normalized (variation in microRNA expression, subject cell / control cell) ([gc2_10]vs +Nfb2_17]) | Normalized (variation in microRNA expression, subject cell / control cell) ([gcl_6]vs [Nfb2_17])
hsa-miR-21-5p (TCAACATCAGTCTGATAAGC; chemistry not given here) | 1.136 | 2.904 |  | −6.311 | −6.38 | −5.844 | 
hsa-miR-23b-3p (GGTAATCCCTGGCAATG; chemistry not given here) | 1.154 | 3.268 | −1.014 |  |  |  | 
hsa-miR-25-3p (TCAGACCGAGACAAGTGC; chemistry not given here) |  |  |  | −1.899 | −1.478 | −1.515 | 
hsa-miR-27a-3p (GCGGAACTTAGCCACTG; chemistry not given here) | 1.084 | 3.755 | −1.047 |  |  |  | 
hsa-miR-27b-3p (GCAGAACTTAGCCACTGT; chemistry not given here) |  | 2.569 |  | −2.575 |  | −2.297 | 
hsa-miR-29a-3p (TAACCGATTTCAGATGGTGC; chemistry not given here) |  | 3.972 |  |  |  | −3.561 | 
hsa-miR-29b-3p (AACACTGATTTCAAATGGTGC; chemistry not given here) |  | 4.488 |  |  |  |  | 
hsa-miR-34a-5p (ACAACCAGCTAAGACACTGC; chemistry not given here) |  |  |  | −2.608 | −2.833 | −2.706 | 
hsa-miR-34c-5p (GCAATCAGCTAACTACACTG; chemistry not given here) |  | 1.308 |  |  |  |  | 
hsa-miR-96-5p (AGCAAAAATGTGCTAGTGCCAA; chemistry not given here) |  | 1.093 |  |  |  |  | 
hsa-miR-124-3p (GGCATTCACCGCGTGC; chemistry not given here) | 1.242 |  |  |  |  |  | 1.88
hsa-miR-125a-5p (TCACAGGTTAAAGGGTCTC; chemistry not given here) |  | 1.809 | −1.373 |  | −1.149 |  | 
hsa-miR-125b-5p (TCACAAGTTAGGGTCTC; chemistry not given here) | 1.982 | 2.946 | −1.393 | −1.425 | −2.411 |  | 
hsa-miR-130a-3p (ATGCCCTTTTAACATTGCA; chemistry not given here) |  | −4.732 |  | −5.267 | −5.014 | −5.029 | 
hsa-miR-134 (CCCCTCTGGTCAA; chemistry not given here) | 2.736 |  |  | 1.853 | 1.299 | 2.829 | 2.883
hsa-miR-183-5p (AGTGAATTCTACCAGTGCCA; chemistry not given here) |  | 1.285 |  |  |  | −1.886 | 
hsa-miR-193b-3p (AGCGGGACTTTGAGGG; chemistry not given here) |  |  |  |  |  | 1.098 | 

Source: US20140137274A1, “INDUCED MALIGNANT STEM CELLS” (LSIP, LLC, priority 2011, published 2014)
